The values below come from PubChem BioAssay (NCI).

Assay in all cases: NCI anticancer screen, dose series, 48 h
The subject of assay [1] is MDA-MB-435.
Assay [2] has as its system SR leukemia.
The test system of assay [3] is MOLT-4 leukemia.
For assay [4], the system named is LOX IMVI melanoma.
Assay [5] deals with SN12C renal.
Assay [6] relates to OVCAR-4 ovarian.
Assay [7] relates to K-562 leukemia.
Assay [8] has as its system U251 CNS.
For assay [9], the system named is CAKI-1 renal.
For assay [10], the system named is SF-268 CNS.

“And” between values parts separate entries of the source, which are not always exact repeats. Identical values can stand only once.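 48-hour exposure; five concentrations; linearly interpolated endpoints. GI50 = concentration required for 50% inhibition of growth. TGI: concentration producing complete growth inhibition.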

For `COc1ccccc1S(=O)(=O)Nc1ccc2c(c1)CN(C)C(=O)N2`, the GI50 in assay [1] was 4.24 µM and 2.63 µM; in assay [2], 2.4 µM and 3.49 µM; in [3], 11 µM and 12.7 µM; in assay [4], 3.3 µM and 3.45 µM; in assay [5], 11 µM and 7.5 µM; in assay [6], 3.4 µM and 4.28 µM. For the same compound, the GI50 is 8.64 µM and 5.18 µM in assay [7]; 14.1 µM and 13.2 µM in assay [8]; 0.994 µM and 3 µM in [9]; 20 µM and 24.7 µM in assay [10]. In addition, the TGI was over 100 µM in assay [1]; over 100 µM in assay [2]; over 100 µM in [3]; 27.8 µM and 21.3 µM in assay [4]; over 100 µM in [5]; over 100 µM in assay [6]. The TGI in [7], in assay [8], in assay [9] and in assay [10] was over 100 µM each time.

Take `COc1ccc2c(c1)[n+](=O)c(C(=O)/C=C/c1cc(OC)c(OC)c(OC)c1)c(C)n2[O-]`: the GI50 was over 100 µM in [1]; 58.4 µM in assay [2]; over 100 µM in assay [3]; 16 µM in assay [4]; 28.2 µM in assay [5]; over 100 µM in assay [6]. Moreover, the GI50 in assay [7] is over 100 µM; in assay [8] it was 9.87 µM; in [9] it was 26.9 µM; in assay [10], 8.15 µM. In addition, the TGI is over 100 µM in [1]; over 100 µM in assay [2]; over 100 µM in assay [3]; 47.6 µM in [4]; over 100 µM in [5]; over 100 µM in [6]. Besides, the TGI in assay [7] is over 100 µM; in assay [8], 22.4 µM; in [9], over 100 µM; in assay [10] it was 40.4 µM.

As for `Cn1c(=S)c2[nH]c(SCCN3CCCC3)nc2n(C)c1=O`, the TGI in [1], in assay [2], in assay [3], in assay [4], in [5] and in [6] was over 100 µM throughout. Also, the TGI in assay [7], in [8], in assay [9] and in assay [10] was over 100 µM in each case.

On to `Cc1nc(N)sc1C(=O)Nc1cc(C(=O)NCCCN(C)C)n(C)c1`, for which the GI50 in [1], in [2], in [3], in assay [4], in assay [5] and in [6] was over 100 µM each time. Also, the GI50 in [7], in assay [8], in assay [9] and in assay [10] was over 100 µM each time. The TGI in [1], in assay [2], in assay [3], in assay [4], in [5] and in [6] was over 100 µM each time. Also, the TGI in [7], in assay [8], in assay [9] and in [10] was over 100 µM in each case.

`O=C(OCc1ccc2c(Cl)cc(Cl)c(O)c2n1)c1cc2ccccc2[nH]1`: the GI50 in assay [1] is 0.318 µM; in assay [2], 0.324 µM; in [3] it was 0.407 µM; in assay [4] it was 0.17 µM; in [5], 0.285 µM; in assay [6] it was 0.596 µM. In addition, the GI50 in [7] is 0.336 µM; in assay [8], 1.61 µM; in assay [9], 0.435 µM; in [10], 1.5 µM. Further, the TGI is 1.04 µM in assay [1]; 1.92 µM in assay [2]; 2.35 µM in [3]; 0.332 µM in [4]; 0.939 µM in assay [5]; 1.45 µM in [6]. Besides, the TGI in [7] amounted to 10.2 µM; in assay [8], 3.22 µM; in assay [9], 1.65 µM; in assay [10], 2.97 µM.

On to `CS(=O)(=O)CCNCc1ccc(-c2ccc3ncnc(Nc4ccc(OCc5ccccc5)c(Cl)c4)c3c2)o1`, for which the GI50 is 4.47 µM in assay [1]; 6.91 µM in assay [2]; 6.05 µM in assay [3]; 4.11 µM in assay [4]; 11.9 µM in assay [5]; 9.59 µM in assay [6]. Moreover, the GI50 was 5.45 µM in assay [7], 5.02 µM in [8], 0.41 µM in assay [9] and 6.52 µM in [10]. Further, the TGI was 9.78 µM in assay [1]; 23.9 µM in assay [2]; over 25 µM in assay [3]; 8.2 µM in [4]; over 25 µM in [5]; over 25 µM in assay [6]. Also, the TGI was 14.4 µM in assay [7], over 15.8 µM in assay [8], over 21.8 µM in assay [9] and over 25 µM in assay [10].
